Molecular target: Human immunodeficiency virus type 1 protease (Human immunodeficiency virus 1, UniProt Q72874)
Assay: Inhibitory activity towards HIV-1 protease

Row | SMILES | IC50 [nM]
1 | CC1(C)S[C@H]([C@H](NC(=O)Cc2ccccc2)C(N)=O)N[C@H]1C(=O)NCCNC(=O)[C@@H]1N[C@@H]([C@H](NC(=O)Cc2ccccc2)C(N)=O)SC1(C)C | 3
2 | CCNC(=O)[C@@H](NC(=O)Cc1ccccc1)[C@@H]1N[C@@H](C(=O)NCCNC(=O)[C@@H]2N[C@@H]([C@H](NC(=O)Cc3ccccc3)C(=O)NCC)SC2(C)C)C(C)(C)S1 | 4.8
3 | COC(=O)[C@@H](NC(=O)Cc1ccccc1)[C@@H]1N[C@@H](C(=O)NCCNC(C)=O)C(C)(C)S1 | > 55000
4 | CCNC(=O)[C@@H](NC(=O)Cc1ccccc1)[C@@H]1N[C@@H](C(=O)OCCOC(=O)[C@@H]2N[C@@H]([C@H](NC(=O)Cc3ccccc3)C(=O)NCC)SC2(C)C)C(C)(C)S1 | > 12000
5 | COC(=O)[C@@H](NC(=O)Cc1ccccc1)[C@@H]1N[C@@H](C(=O)NCCCNC(=O)[C@@H]2N[C@@H]([C@H](NC(=O)Cc3ccccc3)C(=O)OC)SC2(C)C)C(C)(C)S1 | > 12000
6 | COC(=O)[C@@H](NC(=O)Cc1ccccc1)[C@@H]1N[C@@H](C(=O)NNC(=O)[C@@H]2N[C@@H]([C@H](NC(=O)Cc3ccccc3)C(=O)OC)SC2(C)C)C(C)(C)S1 | 6800
7 | CC1(C)S[C@H]([C@H](NC(=O)Cc2ccccc2)C(=O)NCc2ccccc2)N[C@H]1C(=O)NCCNC(=O)[C@@H]1N[C@@H]([C@H](NC(=O)Cc2ccccc2)C(=O)NCc2ccccc2)SC1(C)C | 0.9
8 | CCNC(=O)[C@@H]1N[C@@H]([C@H](NC(=O)Cc2ccccc2)C(=O)OC)SC1(C)C | > 63000
9 | COC(=O)[C@@H](NC(=O)Cc1ccccc1)[C@@H]1N[C@@H](C(=O)NCCNC(=O)[C@@H]2N[C@@H]([C@H](NC(=O)Cc3ccccc3)C(=O)OC)SC2(C)C)C(C)(C)S1 | 60
10 | COC(=O)[C@@H](NC(=O)Cc1ccccc1)[C@@H]1N[C@@H](C(=O)NCCNC(=O)[C@@H]2N3C(=O)C(NC(=O)Cc4ccccc4)[C@H]3SC2(C)C)C(C)(C)S1 (stereo partly specified) | 500
11 | CC1(C)S[C@@H]2[C@H](NC(=O)Cc3ccccc3)C(=O)N2[C@H]1C(=O)NCCNC(=O)[C@@H]1N2C(=O)[C@@H](NC(=O)Cc3ccccc3)[C@H]2SC1(C)C | > 70000

From ChEMBL document CHEMBL1125526, “Penicillin derived C2-symmetric dimers as novel inhibitors of HIV-1 proteinase” (J Med Chem, 1992)
